Measured values taken from EP0540969B1, “Derivatives of structurally modified VIP and pharmaceutical compositions containing them” (YEDA RESEARCH AND DEVELOPMENT CO. LTD., priority 1991, dated 1998).

Legend:
castrated rats = test: Biological tests for penile reflexes (latency and number of E2 and cups) after transdermal application; format: in vivo; settings: ointment with Sefsol 318 carrier; for Number of E2: during the test period (Fig. 1C); for Number of Cups: during the test period (Fig. 1D)
Description: The following ointment compositions were prepared and tested for transdermal application of lipophilic conjugated modified VIP derivatives in accordance with the present invention. Similar conjugates of unmodified VIP derivatives were tested for comparison. • 1. Ointment containing glycerine as a carrier: The ointment was prepared as follows: 2 g glycerine + 10 mg stearoyl-VIP + 7 drops of DMSO (dimethylsulfoxide). Each rat received 30-50 µg of stearoyl-VIP in about 10 µl ointment. (GLY in Figure 1). • 2. Ointment containing a lubricant as a carrier: The ointment was prepared as above, only glycerine was replaced by lubricant (K-Y Lubricating Jelly, Johnson & Johnson, containing propylene glycol and glycerine), 7 drops of DMSO equals about 130 µl. (LUB in Figure 1). • 3. Ointment containing a lubricant and nitroglycerine as a carrier: Prepared as in (2) above with 1.7 ml nitroglycerine (1 mg/ml), (LUB-NTG in Figure 1). • 4. Ointment containing Sefsol 318™ (12) as a carrier: The ointment composition was: 31.2 µl 10% Sefsol 318™ (glyceryl monocaprylate), 0.24 mg stearoyl-VIP in 31.2 µl DMSO (1-2µl per animal) (SEFS in Figure 1) or 0.24 mg stearoyl -Nle^17-VIP in 31.2µl DMSO (SEFS in Fig. 1).
The biological tests involved measurements of penile reflexes in castrated rats following transdermal application of modified and native VIP conjugates. […] In a further set of experiments the effects of stearoyl-VIP compounded with Sefsol 318™ were compared with those of stearoyl -Nle^17-VIP compounded with Sefsol 318™.
Rats with reduced sexual potential due to castration were employed. Male rats (250-300 g, about three month old) were kept in a 12-hours light, 12-hours dark cycle. Experiments were always conducted within the dark period, 2-6 hours after the onset of darkness. Male rats were castrated and given partial testosterone replacement (4 µg/100 g body weight) in the form of daily injection for 14-21 consecutive days (the duration of the experiment). Experiments were conducted one week following surgery.
A procedure was utilized that employed the technique that measures sexual reflexes in the penis, which enables direct evaluation of penile erection following transdermal administration of the drug. Successful reproduction depends, in large part, upon the precise execution of temporally organized, functionally related behavioural units. In these experiments, we concentrated on the final stages of the erection process (reddening of the penis accompanied by its distension and extension leading to complete erection) and monitored the latency time to the first E2 and first cup (13).
For testing, each animal was restrained in a supine position with the anterior portion of its body enclosed in a loosely fitting cylinder (7 cm diam). After a belt was secured around the torso, the glans penis was extruded from its sheath and gently held perpendicular to the abdomen by a thin wooden applicator positioned at the posterior of the penis. The legs of the male were held by the observer and this position was maintained throughout the test period. The duration of the session was 45 minutes. The latencies and numbers of E2 and cups were recorded and plotted.
An E2 is defined as a complete erection which can be followed by cup in which the penile tip is turned into a cup-like structure, whereby the glands flare out such that the penis is wider in its distal portion than its base. This final stage requires E2 and is probably a pre-requisite for ejaculation (13). Using all the parameters one can obtain a reliable measure of the sexual activity of the tested rat.
Six to ten animals were tested in this paradigm for each variable. Control animals received ointment compositions without St-VIP or St-Nle^17-VIP.

[1] = Stability compared with the unmodified conjugate; format: physicochemical; settings: compared with stearoyl-VIP in which the amino acid sequence was not altered
rat [2] = test: Repeated dose toxicity studies, daily topical application; format: in vivo; settings: daily topical application (to the sex organ), dose of 3.5 mg/animal
Description: (§1) To assess the degree of toxicity and possible side effects of stearoyl-Nle^17-VIP, two types of studies were performed: 1. acute toxicology studies; 2. repeated dose toxicity studies.
(§2) The drug was prepared essentially as follows: 539 mg stearoyl-Nle^17-VIP+2.31 ml 10% Sefsol+2.31 ml 40% isopropanol. The experimental animal was the rat (160-300 g body weight).
(§3) In the acute toxicology studies, three routes of administration were chosen: 1. subcutaneous; 2. intravenous; 3. oral.

[3] = Skin penetration and body distribution of 125I-labelled VIP derivatives after transdermal application in Sefsol 318; format: in vivo
Text: These experiments were divided into two groups. In the first group of experiments we performed a time course of the distribution of radioactively labelled stearoyl-Nle^17-VIP (in Sefsol 318™), applied transdermally, in various organs of the body. In the second group of experiments we compared the penetration of four radioactively labelled VIP derivatives with Sefsol 318™ following transdermal application. Two to four animals were used for each data point. The derivatives were labelled with ^125I using the chloramine-T based method (14).
In the first group of experiments, stearoyl-Nle^17-VIP was radioactively labelled with ^125I. Each animal received 2.2 million CPM, in 6µl of the radioactive material+ 26µl ointment (ointment No. 4 in Example 5). Two animals were used for each time point in two independent experiments. To avoid oral absorbance, the animal mouth was sealed. At indicated times following topical application, animals were sacrificed and duplicate tissue samples were removed, weighed and counted in a gamma counter. Tissues measured were: lungs (LU), heart (HE), kidneys (KI), liver (LI) and intestine (IN).
In the second group of experiments compositions of Sefsol 318™ and VIP, St-VIP, Nle^17-VIP and St-Nle^17-VIP were prepared. The experiments were performed as in Figure 2 with the only difference that each animal received a 2.4 million CPM. 2-4 animals were utilized for each variable. Animals were sacrificed 30 minutes after the application of the drug.

rat [4] = test: Acute toxicology studies; format: in vivo; settings: for gross side effects / mortality: dose of 7 mg/rat
Description: as §1, §2, §3

Compound	Number of E2 (castrated rats)	Number of Cups (castrated rats)	stability relative to stearoyl-VIP [1]	Latency to first E2 (castrated rats; 45 min session (Fig. 1A))	Latency to first cup (castrated rats; 45 min session (Fig. 1B)) [min]	mortality (rat [2])	side effects (rat [2])	tissue concentrations compared among VIP, St-VIP, Nle^17-VIP and St-Nle^17-VIP ([3]; in Sefsol 318, animals sacrificed 30 minutes after application (Fig. 3))	peak deliveries (time after administration) ([3]; in Sefsol 318, topical, lungs, heart, kidneys, liver, intestine (Fig. 2)) [min]	disappearance (time after administration) ([3]; in Sefsol 318, topical, tissue samples (Fig. 2)) [h]	LD50 (rat [4]; intravenous injection) [mg/rat]	gross side effects (rat [4]; oral administration)	mortality (rat [4]; oral administration)	gross side effects (rat [4]; subcutaneous administration)	mortality (rat [4]; subcutaneous administration)
CCCCCCCCCCCCCCCCCC(=O)N[C@@H](Cc1c[nH]cn1)C(=O)N[C@@H](CO)C(=O)N[C@@H](CC(=O)O)C(=O)N[C@@H](C)C(=O)N[C@H](C(=O)N[C@@H](Cc1ccccc1)C(=O)N[C@H](C(=O)N[C@@H](CC(=O)O)C(=O)N[C@@H](CC(N)=O)C(=O)N[C@@H](Cc1ccc(O)cc1)C(=O)N[C@H](C(=O)N[C@@H](CCCNC(=N)N)C(=O)N[C@@H](CC(C)C)C(=O)N[C@@H](CCCNC(=N)N)C(=O)N[C@@H](CCCCN)C(=O)N[C@@H](CCC(N)=O)C(=O)N[C@@H](CCSC)C(=O)N[C@@H](C)C(=O)N[C@H](C(=O)N[C@@H](CCCCN)C(=O)N[C@@H](CCCCN)C(=O)N[C@@H](Cc1ccc(O)cc1)C(=O)N[C@@H](CC(C)C)C(=O)N[C@@H](CC(N)=O)C(=O)N[C@@H](CO)C(=O)N[C@H](C(=O)N[C@@H](CC(C)C)C(=O)N[C@@H](CC(N)=O)C(N)=O)[C@@H](C)CC)C(C)C)[C@@H](C)O)[C@@H](C)O)C(C)C [St-VIP, stearoyl-VIP, reference compound]	24	12	–	–	–	–	–	–	–	–	–	–	–	–	–
stearoyl -norleucine^17-VIP [St-Nle^17-VIP]	34	20	more stable	about 1 minute	10	no mortality	nor any side effects	highest concentrations	15 to 60	2.5	7	no gross side effects	no mortality	no gross side effects	no mortality
